The test concerns BDF1 mice, P388 leukemia ip, median survival T/C. The test is described as follows: NCI In Vivo Anticancer Drug Screen. Data for tumor model P388 Leukemia (intraperitoneal) in B6D2F1 (BDF1) mice. The note with it: endpoint: median survival time, higher = longer survival. In a few lines: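 Mice carrying the transplantable tumour receive compound or vehicle. Survival is followed in each arm, and the treated measure is divided by the vehicle measure.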

Where [1] appears, read: dose: 100.0 mg/kg/injection, schedule: Q01DX009 (ip), vehicle: saline with Tween-80.
The mark [2] stands for this setting: dose: 100.0 mg/kg/injection, schedule: Q04DX003 (ip), vehicle: Klucel (hydroxypropylcellulose) (HPC).
[3] abbreviates: dose: 200.0 mg/kg/injection, schedule: Q01DX009 (ip), vehicle: saline with Tween-80.
Setting [4] is: dose: 200.0 mg/kg/injection, schedule: Q04DX003 (ip), vehicle: Klucel (hydroxypropylcellulose) (HPC).
Setting [5] is: dose: 400.0 mg/kg/injection, schedule: Q04DX003 (ip), vehicle: Klucel (hydroxypropylcellulose) (HPC).
Setting [6] is: dose: 25.0 mg/kg/injection, schedule: Q01DX009 (ip), vehicle: Klucel (hydroxypropylcellulose) (HPC).
Where [7] appears, read: dose: 25.0 mg/kg/injection, schedule: Q04DX003 (ip), vehicle: Klucel (hydroxypropylcellulose) (HPC).
[8] abbreviates: dose: 50.0 mg/kg/injection, schedule: Q01DX009 (ip), vehicle: Klucel (hydroxypropylcellulose) (HPC).
Setting [9] is: dose: 100.0 mg/kg/injection, schedule: Q01DX009 (ip), vehicle: Klucel (hydroxypropylcellulose) (HPC).
The mark [10] stands for this setting: dose: 6.25 mg/kg/injection, schedule: Q01DX009 (ip), vehicle: saline.
Setting [11] is: dose: 12.5 mg/kg/injection, schedule: Q01DX009 (ip), vehicle: saline with Tween-80.
[12] abbreviates: dose: 50.0 mg/kg/injection, schedule: Q04DX003 (ip), vehicle: saline with Tween-80.
Where [13] appears, read: dose: 100.0 mg/kg/injection, schedule: Q04DX003 (ip), vehicle: saline with Tween-80.
[14] abbreviates: dose: 50.0 mg/kg/injection, schedule: Q01DX009 (ip), vehicle: saline with Tween-80.
Setting [15] is: dose: 25.0 mg/kg/injection, schedule: Q01DX009 (ip), vehicle: saline with Tween-80.

Inconclusive results and toxic doses are left out.

As for `CC1CNCC(C)N1C(=O)c1ccccc1` (centres undefined), the T/C (dose: 0.1 mg/kg/injection, schedule: Q01DX009 (ip), vehicle: water) is 96 % of control; the T/C (dose: 0.2 mg/kg/injection, schedule: Q01DX009 (ip), vehicle: water) was 105 % of control; the T/C (dose: 0.4 mg/kg/injection, schedule: Q01DX009 (ip), vehicle: water) is 115 % of control; the T/C (dose: 0.78 mg/kg/injection, schedule: Q04DX003 (ip), vehicle: water) is 97 % of control; the T/C (dose: 1.56 mg/kg/injection, schedule: Q04DX003 (ip), vehicle: water) is 104 % of control; the T/C (dose: 3.12 mg/kg/injection, schedule: Q04DX003 (ip), vehicle: water) was 104 % of control. For the setting “dose: 6.25 mg/kg/injection, schedule: Q04DX003 (ip), vehicle: water”, the T/C was 88 % of control.
Consider `Nc1ccc(OCc2ccc(C(=O)Nc3cccc(S(=O)(=O)F)c3)cc2)c(Cl)c1`, for which the T/C by setting is: under setting [1], 91 % of control; under setting [2], 100 % of control; under setting [3], 91 % of control; under setting [4], 100 % of control; (dose: 400.0 mg/kg/injection, schedule: Q01DX009 (ip), vehicle: saline with Tween-80) 100 % of control; under setting [5], 100 % of control.
Consider `CCOC(=O)C1=C(N)n2c(s/c(=C/c3ccc(N(C)C)cc3)c2=O)=C(C(=O)OCC)C1c1ccc(N(C)C)cc1` (centres undefined), for which the T/C is 101 % of control (dose: 50.0 mg/kg/injection, schedule: Q01DX005 (ip), vehicle: saline with Tween-80); 97 % of control (dose: 100.0 mg/kg/injection, schedule: Q01DX005 (ip), vehicle: saline with Tween-80); 99 % of control (dose: 200.0 mg/kg/injection, schedule: Q01DX005 (ip), vehicle: saline with Tween-80).
On to `CO/N=C/c1ccc([N+](=O)[O-])s1`, for which the T/C (dose: 12.0 mg/kg/injection, schedule: Q04DX003 (ip), vehicle: Klucel (hydroxypropylcellulose) (HPC)) was 118 % of control; the T/C under setting [6] is 100 % of control; the T/C under setting [7] is 113 % of control; the T/C under setting [8] is 108 % of control; the T/C (dose: 50.0 mg/kg/injection, schedule: Q04DX003 (ip), vehicle: Klucel (hydroxypropylcellulose) (HPC)) is 104 % of control; the T/C under setting [9] is 108 % of control.
As for `O=C(NCCCl)NC1c2ccccc2CCc2ccccc21`, the T/C by setting is: under setting [8], 105 % of control; under setting [9], 105 % of control; under setting [2], 95 % of control; (dose: 200.0 mg/kg/injection, schedule: Q01DX009 (ip), vehicle: Klucel (hydroxypropylcellulose) (HPC)) 100 % of control; under setting [4], 90 % of control.
In the case of `CC(=O)Nc1ccc2c3c(ccc([N+](=O)[O-])c13)CC2`, the T/C by setting is: (dose: 100.0 mg/kg/injection, schedule: Q01DX009 (ip), vehicle: saline) 90 % of control; (dose: 200.0 mg/kg/injection, schedule: Q01DX009 (ip), vehicle: saline) 95 % of control.
As for `CCN(c1ccc2c(c1)C(=O)c1ccccc1-2)S(=O)(=O)c1ccc(C)cc1`, the T/C runs as follows: under setting [2], 100 % of control; under setting [4], 104 % of control; under setting [5], 95 % of control.
For `CCCCCCCC[N+]12CC[N+](CCCCCCCC)(CC1)CC2`, the T/C reads like this: (dose: 3.13 mg/kg/injection, schedule: Q01DX009 (ip), vehicle: saline) 106 % of control; under setting [10], 103 % of control.
On to `CN(C)c1ccc(C=O)c(Br)c1`, for which the T/C was 109 % of control (dose: 12.5 mg/kg/injection, schedule: Q01DX009 (ip), vehicle: Klucel (hydroxypropylcellulose) (HPC)); 90 % of control under setting [6]; 86 % of control under setting [8]; 90 % of control under setting [2]; 104 % of control under setting [5].
In the case of `COc1cc2cc[n+](C)c(Cc3ccccc3)c2cc1OC`, the T/C is, setting by setting: under setting [11], 100 % of control; under setting [8], 159 % of control; under setting [12], 113 % of control; under setting [13], 90 % of control.
On to `C1CCC2[N-]CC3CCCCC3[N-]CC3CCCCC3[N-]CC3CCCCC3[N-]CC2C1.[Cu]` (centres undefined), for which the T/C is 107 % of control (dose: 0.39 mg/kg/injection, schedule: Q01DX009 (ip), vehicle: saline); 113 % of control (dose: 0.78 mg/kg/injection, schedule: Q01DX009 (ip), vehicle: saline); 166 % of control (dose: 3.12 mg/kg/injection, schedule: Q01DX009 (ip), vehicle: saline); 96 % of control under setting [10].
`Cc1ccc(CO)cc1C`: the T/C was 100 % of control under setting [12]; 100 % of control under setting [13]; 104 % of control (dose: 200.0 mg/kg/injection, schedule: Q04DX003 (ip), vehicle: saline with Tween-80).
For `CC(C)CCCC(C)C1CCC2C3CC=C4CC([Se][As](C)C)CCC4(C)C3CCC12C` (centres undefined), the T/C reads like this: under setting [14], 118 % of control; under setting [1], 111 % of control.
In the case of `CN(C)/N=C1\C(=O)N(CCCl)c2cc(Cl)c(Cl)cc21`, the T/C was 97 % of control under setting [14], 99 % of control under setting [1] and 90 % of control under setting [3].
For the compound `COc1ccc(CN2COc3c(cc(C)c4cccnc34)C2)cc1`, the T/C under setting [11] was 90 % of control, the T/C under setting [15] was 94 % of control and the T/C under setting [14] was 92 % of control.
Consider `CC(=N\[O-])/C(C)=N/O.CC(=N\[O-])/C(C)=N/O.[Cl-].[Cl-].[Rh+3].c1ccncc1`, for which the T/C (dose: 75.0 mg/kg/injection, schedule: Q01DX009 (ip), vehicle: water) was 110 % of control and the T/C (dose: 150.0 mg/kg/injection, schedule: Q01DX009 (ip), vehicle: water) is 110 % of control.
In the case of `O=C(O)c1cc(Br)cc(SSc2cc(Br)cc(C(=O)O)c2O)c1O`, the T/C reads like this: under setting [15], 103 % of control; under setting [14], 94 % of control; under setting [1], 106 % of control.
Regarding `CCOC(=O)Nc1cc(NC/C(=N/O)c2ccc(OC)cc2)c([N+](=O)[O-])c(N)n1`, the T/C is 93 % of control (dose: 12.5 mg/kg/injection, schedule: Q01DX001 (ip), vehicle: Klucel (hydroxypropylcellulose) (HPC)); 93 % of control (dose: 25.0 mg/kg/injection, schedule: Q01DX001 (ip), vehicle: Klucel (hydroxypropylcellulose) (HPC)); 93 % of control (dose: 50.0 mg/kg/injection, schedule: Q01DX001 (ip), vehicle: Klucel (hydroxypropylcellulose) (HPC)).
With `Cc1ccc2c(/C=C/c3ccc(N(C)C)cc3)ccnc2c1C`, the T/C under setting [1] is 120 % of control.
For the compound `Cc1cc(N(C)C)c2ccc3ccccc3c2n1`, the T/C under setting [14] was 93 % of control, the T/C under setting [1] was 95 % of control and the T/C under setting [3] was 101 % of control.
`O=C(c1ccc(Cl)cc1)n1c(Cl)c(/C=N\Nc2cccc([N+](=O)[O-])c2)c2ccccc21`: the T/C (dose: 400.0 mg/kg/injection, schedule: Q01DX001 (ip), vehicle: Klucel (hydroxypropylcellulose) (HPC)) was 89 % of control.
For `N#CN=CN1CCC(O)(c2ccccc2)CC1`, the T/C under setting [14] is 88 % of control, the T/C under setting [1] was 88 % of control and the T/C under setting [3] is 94 % of control.
Turning to `COC(=O)C(CSCSCc1ccccc1)NC(=O)C(CSCc1ccccc1)NC(=O)CCNC(=O)OCc1ccccc1` (centres undefined), the T/C was 101 % of control (dose: 1.56 mg/kg/injection, schedule: Q04DX003 (ip), vehicle: Klucel (hydroxypropylcellulose) (HPC)); 120 % of control (dose: 3.13 mg/kg/injection, schedule: Q04DX003 (ip), vehicle: Klucel (hydroxypropylcellulose) (HPC)); 101 % of control (dose: 12.5 mg/kg/injection, schedule: Q04DX003 (ip), vehicle: Klucel (hydroxypropylcellulose) (HPC)); 111 % of control under setting [7].
On to `Nc1ccc2cc(Cl)ccc2c1`, for which, under setting [1], the T/C is 90 % of control.
